Results as given in ChEMBL document CHEMBL4507299, “Data for DCP probe PF-04554878” (2021).

Tests used:
[1] = biological target: Ribosomal protein S6 kinase alpha-2 (Homo sapiens) (UniProt Q15349)
[2] = biological target: Serine/threonine-protein kinase 17A (Homo sapiens) (UniProt Q9UEE5)
[3] = tested on: Fibroblast growth factor receptor 3 (Homo sapiens), P22607 [G697C]
[4] = biological target: Homeodomain-interacting protein kinase 2 (Homo sapiens) (UniProt Q9H2X6)
[5] = tested on: Epidermal growth factor receptor (Homo sapiens), P00533 [UNDEFINED MUTATION]
[6] = biological target: cAMP-dependent protein kinase catalytic subunit beta (Homo sapiens) (UniProt P22694)
[7] = biological target: Mitogen-activated protein kinase kinase kinase 13 (Homo sapiens) (UniProt O43283)
[8] = biological target: Myosin-IIIb (Homo sapiens) (UniProt Q8WXR4)
[9] = biological target: Serine/threonine-protein kinase PAK 2 (Homo sapiens) (UniProt Q13177)
Chain of Serine/threonine-protein kinase PAK 2 (Homo sapiens) (Q13177 whole entry): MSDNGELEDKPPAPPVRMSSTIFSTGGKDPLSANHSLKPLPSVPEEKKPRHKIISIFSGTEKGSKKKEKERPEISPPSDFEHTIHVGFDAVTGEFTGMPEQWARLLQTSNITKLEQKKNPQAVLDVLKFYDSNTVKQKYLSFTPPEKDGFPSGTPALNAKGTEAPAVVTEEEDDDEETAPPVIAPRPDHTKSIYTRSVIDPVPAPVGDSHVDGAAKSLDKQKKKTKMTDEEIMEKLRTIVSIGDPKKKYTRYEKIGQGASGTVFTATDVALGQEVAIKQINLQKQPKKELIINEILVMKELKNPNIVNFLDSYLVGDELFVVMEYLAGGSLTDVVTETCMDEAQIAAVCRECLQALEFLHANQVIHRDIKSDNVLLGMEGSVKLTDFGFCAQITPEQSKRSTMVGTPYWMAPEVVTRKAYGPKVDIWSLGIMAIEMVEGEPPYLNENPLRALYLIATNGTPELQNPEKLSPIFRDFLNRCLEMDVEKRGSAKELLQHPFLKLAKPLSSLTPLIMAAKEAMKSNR

[10] = tested on: Tyrosine-protein kinase ABL1 (Homo sapiens), P00519 [T315I]
[11] = tested on: Epidermal growth factor receptor (Homo sapiens), P00533 [L861Q]
[12] = biological target: Protein kinase C epsilon type (Homo sapiens) (UniProt Q02156)
[13] = biological target: Tyrosine-protein kinase Tec (Homo sapiens) (UniProt P42680)
[14] = biological target: TGF-beta receptor type-2 (Homo sapiens) (UniProt P37173)
[15] = biological target: Interleukin-1 receptor-associated kinase 3 (Homo sapiens) (UniProt Q9Y616)
Chain of Interleukin-1 receptor-associated kinase 3 (Homo sapiens) (Q9Y616 whole entry): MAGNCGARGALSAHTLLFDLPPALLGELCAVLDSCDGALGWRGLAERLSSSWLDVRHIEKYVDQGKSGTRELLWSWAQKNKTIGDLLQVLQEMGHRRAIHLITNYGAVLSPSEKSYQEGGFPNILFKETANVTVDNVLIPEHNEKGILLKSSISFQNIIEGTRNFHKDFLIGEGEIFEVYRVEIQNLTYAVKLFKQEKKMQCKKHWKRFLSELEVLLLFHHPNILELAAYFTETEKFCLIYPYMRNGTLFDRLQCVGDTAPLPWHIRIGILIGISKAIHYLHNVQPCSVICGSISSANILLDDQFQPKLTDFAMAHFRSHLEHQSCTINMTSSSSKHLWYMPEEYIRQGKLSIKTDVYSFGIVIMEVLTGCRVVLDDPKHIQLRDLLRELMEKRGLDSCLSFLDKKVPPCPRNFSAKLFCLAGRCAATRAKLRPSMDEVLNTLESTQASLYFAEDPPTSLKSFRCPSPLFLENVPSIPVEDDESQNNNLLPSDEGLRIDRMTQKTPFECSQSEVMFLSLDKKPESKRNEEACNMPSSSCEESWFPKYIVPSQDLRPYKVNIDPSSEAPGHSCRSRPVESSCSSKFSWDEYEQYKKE

[16] = biological target: Dual specificity protein kinase CLK2 (Homo sapiens) (UniProt P49760)
[17] = biological target: Beta-3 adrenergic receptor (Homo sapiens) (UniProt P13945); settings: Compound concentration 10.0 uM
[18] = tested on: Tyrosine-protein kinase ABL1 (Homo sapiens), P00519 [Y253F]
[19] = biological target: Uncharacterized serine/threonine-protein kinase SBK3 (Homo sapiens) (UniProt P0C264)
[20] = biological target: Beta-1 adrenergic receptor (Homo sapiens) (UniProt P08588); settings: Compound concentration 10.0 uM
[21] = biological target: Tyrosine-protein kinase Fes/Fps (Homo sapiens) (UniProt P07332)
[22] = biological target: T1, Serine/threonine-protein kinase Sgk1 (Homo sapiens) (UniProt O00141)
T1 sequence (whole entry): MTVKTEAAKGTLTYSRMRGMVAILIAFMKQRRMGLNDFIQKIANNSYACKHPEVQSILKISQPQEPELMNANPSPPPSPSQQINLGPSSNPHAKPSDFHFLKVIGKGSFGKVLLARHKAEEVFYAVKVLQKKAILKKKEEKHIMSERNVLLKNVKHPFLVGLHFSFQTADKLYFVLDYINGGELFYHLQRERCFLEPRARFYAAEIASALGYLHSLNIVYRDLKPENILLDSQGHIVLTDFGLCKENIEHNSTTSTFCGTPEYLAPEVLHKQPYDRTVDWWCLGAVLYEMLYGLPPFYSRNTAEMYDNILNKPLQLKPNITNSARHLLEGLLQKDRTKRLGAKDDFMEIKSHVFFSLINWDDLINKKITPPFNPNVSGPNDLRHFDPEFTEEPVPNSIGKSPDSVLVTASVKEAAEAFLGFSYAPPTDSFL

[23] = biological target: Dual specificity mitogen-activated protein kinase kinase 7 (Homo sapiens) (UniProt O14733)
[24] = tested on: Epidermal growth factor receptor (Homo sapiens), P00533 [L858R]
[25] = biological target: Mitogen-activated protein kinase kinase kinase kinase 3 (Homo sapiens) (UniProt Q8IVH8)
[26] = biological target: Serine/threonine-protein kinase RIO3 (Homo sapiens) (UniProt O14730)
Chain of Serine/threonine-protein kinase RIO3 (Homo sapiens) (O14730 whole entry): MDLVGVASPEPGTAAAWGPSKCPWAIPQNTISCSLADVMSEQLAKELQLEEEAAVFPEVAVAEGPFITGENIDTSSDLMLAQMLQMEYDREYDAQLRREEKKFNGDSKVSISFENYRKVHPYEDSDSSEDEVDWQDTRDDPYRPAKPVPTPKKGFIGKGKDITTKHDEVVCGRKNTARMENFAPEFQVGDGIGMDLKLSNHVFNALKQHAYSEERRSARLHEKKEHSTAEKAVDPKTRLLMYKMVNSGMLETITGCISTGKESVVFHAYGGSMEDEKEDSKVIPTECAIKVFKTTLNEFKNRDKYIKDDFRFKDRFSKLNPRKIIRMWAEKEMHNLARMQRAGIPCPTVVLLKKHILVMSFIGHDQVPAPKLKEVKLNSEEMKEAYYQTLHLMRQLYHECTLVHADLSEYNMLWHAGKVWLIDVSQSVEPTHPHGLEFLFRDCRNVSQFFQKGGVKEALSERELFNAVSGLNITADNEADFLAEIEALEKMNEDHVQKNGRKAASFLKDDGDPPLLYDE

[27] = biological target: Activin receptor type-1 (Homo sapiens) (UniProt Q04771)
[28] = biological target: Macrophage-stimulating protein receptor (Homo sapiens) (UniProt Q04912)
[29] = biological target: Serine/threonine-protein kinase PAK 3 (Homo sapiens) (UniProt O75914)
Chain of Serine/threonine-protein kinase PAK 3 (Homo sapiens) (O75914 whole entry, looked up): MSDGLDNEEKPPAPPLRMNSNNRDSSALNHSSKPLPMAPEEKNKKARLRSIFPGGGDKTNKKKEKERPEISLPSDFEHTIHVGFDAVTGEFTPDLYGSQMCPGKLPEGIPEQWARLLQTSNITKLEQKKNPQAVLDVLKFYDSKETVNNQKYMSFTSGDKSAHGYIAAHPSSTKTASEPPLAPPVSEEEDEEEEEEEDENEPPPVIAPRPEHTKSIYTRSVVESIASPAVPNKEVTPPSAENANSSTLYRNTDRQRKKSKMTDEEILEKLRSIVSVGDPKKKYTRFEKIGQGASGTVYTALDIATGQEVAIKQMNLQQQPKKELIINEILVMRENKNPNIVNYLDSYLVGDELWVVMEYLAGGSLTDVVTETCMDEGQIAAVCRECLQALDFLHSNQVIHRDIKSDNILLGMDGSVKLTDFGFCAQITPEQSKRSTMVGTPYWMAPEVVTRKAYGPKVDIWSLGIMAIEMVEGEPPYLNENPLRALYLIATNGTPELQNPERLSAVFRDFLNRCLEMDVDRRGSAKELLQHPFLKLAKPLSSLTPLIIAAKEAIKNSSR

[30] = tested on: Leucine-rich repeat serine/threonine-protein kinase 2 (Homo sapiens), Q5S007 [G2019S]
[31] = biological target: Calcium/calmodulin-dependent protein kinase type II subunit alpha (Homo sapiens) (UniProt Q9UQM7)
[32] = biological target: Tyrosine-protein kinase Fyn (Homo sapiens) (UniProt P06241)
[33] = biological target: Serine/threonine-protein kinase PAK 4 (Homo sapiens) (UniProt O96013)
[34] = biological target: Serine/threonine-protein kinase/endoribonuclease IRE1 (Homo sapiens) (UniProt O75460)
[35] = biological target: RAF proto-oncogene serine/threonine-protein kinase (Homo sapiens) (UniProt P04049)
[36] = biological target: Proto-oncogene tyrosine-protein kinase Src (Homo sapiens, UniProt P12931)
[37] = biological target: Mitogen-activated protein kinase 8 (Homo sapiens) (UniProt P45983)
[38] = biological target: Serine/threonine-protein kinase DCLK3 (Homo sapiens) (UniProt Q9C098)
Chain of Serine/threonine-protein kinase DCLK3 (Homo sapiens) (Q9C098 whole entry, the tested form may be a part): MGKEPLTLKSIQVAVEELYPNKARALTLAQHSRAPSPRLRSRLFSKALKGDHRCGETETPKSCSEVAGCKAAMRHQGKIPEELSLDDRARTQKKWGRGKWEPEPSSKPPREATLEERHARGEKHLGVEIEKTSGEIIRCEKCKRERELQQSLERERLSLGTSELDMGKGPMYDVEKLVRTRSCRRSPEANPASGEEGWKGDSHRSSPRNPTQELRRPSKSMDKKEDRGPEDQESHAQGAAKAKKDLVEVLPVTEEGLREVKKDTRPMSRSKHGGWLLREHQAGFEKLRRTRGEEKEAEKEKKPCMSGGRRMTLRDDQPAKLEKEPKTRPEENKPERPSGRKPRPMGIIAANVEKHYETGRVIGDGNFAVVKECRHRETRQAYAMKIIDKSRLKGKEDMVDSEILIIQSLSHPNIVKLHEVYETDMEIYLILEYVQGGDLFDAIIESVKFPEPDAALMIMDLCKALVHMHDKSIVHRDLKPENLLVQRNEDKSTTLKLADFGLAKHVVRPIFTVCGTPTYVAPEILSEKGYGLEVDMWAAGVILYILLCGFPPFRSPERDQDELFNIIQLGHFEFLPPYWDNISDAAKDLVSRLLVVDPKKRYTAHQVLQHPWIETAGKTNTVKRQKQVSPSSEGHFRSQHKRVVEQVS

[39] = biological target: Ankyrin repeat and protein kinase domain-containing protein 1 (Homo sapiens) (UniProt Q8NFD2)
[40] = Compound concentration 100.0 nM
[41] = Compound concentration 1000.0 nM

Chain of Homeodomain-interacting protein kinase 2 (Homo sapiens) (Q9H2X6 whole entry, looked up): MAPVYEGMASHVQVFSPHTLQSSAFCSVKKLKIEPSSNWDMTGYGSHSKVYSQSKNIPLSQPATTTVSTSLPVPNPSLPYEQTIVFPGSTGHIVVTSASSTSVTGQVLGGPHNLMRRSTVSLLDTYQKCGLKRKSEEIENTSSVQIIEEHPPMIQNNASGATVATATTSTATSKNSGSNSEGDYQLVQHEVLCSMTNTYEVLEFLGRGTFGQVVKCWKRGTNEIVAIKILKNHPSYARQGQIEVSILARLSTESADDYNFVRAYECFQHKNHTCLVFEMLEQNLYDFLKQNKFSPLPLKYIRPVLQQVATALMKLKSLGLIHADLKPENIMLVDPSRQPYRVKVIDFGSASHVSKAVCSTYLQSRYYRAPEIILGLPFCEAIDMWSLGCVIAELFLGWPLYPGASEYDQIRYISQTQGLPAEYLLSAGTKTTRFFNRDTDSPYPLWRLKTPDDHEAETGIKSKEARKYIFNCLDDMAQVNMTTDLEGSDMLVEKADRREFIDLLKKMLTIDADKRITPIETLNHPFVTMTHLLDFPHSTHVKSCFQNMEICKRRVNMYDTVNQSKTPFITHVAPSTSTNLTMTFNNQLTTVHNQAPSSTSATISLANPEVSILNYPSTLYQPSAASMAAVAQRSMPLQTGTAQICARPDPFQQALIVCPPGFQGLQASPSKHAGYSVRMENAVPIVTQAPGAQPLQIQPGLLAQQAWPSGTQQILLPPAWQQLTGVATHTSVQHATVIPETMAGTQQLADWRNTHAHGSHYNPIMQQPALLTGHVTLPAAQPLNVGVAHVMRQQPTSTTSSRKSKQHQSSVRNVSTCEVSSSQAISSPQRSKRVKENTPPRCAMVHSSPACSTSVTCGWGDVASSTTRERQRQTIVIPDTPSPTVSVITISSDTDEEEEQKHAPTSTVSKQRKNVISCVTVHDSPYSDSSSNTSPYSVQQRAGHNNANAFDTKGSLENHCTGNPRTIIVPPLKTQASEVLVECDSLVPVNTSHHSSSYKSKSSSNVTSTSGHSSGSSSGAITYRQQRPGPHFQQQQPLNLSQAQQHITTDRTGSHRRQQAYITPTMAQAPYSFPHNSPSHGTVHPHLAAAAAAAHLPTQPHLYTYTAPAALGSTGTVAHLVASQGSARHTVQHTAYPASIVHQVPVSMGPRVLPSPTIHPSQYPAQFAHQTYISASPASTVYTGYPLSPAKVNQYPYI
Chain of Ribosomal protein S6 kinase alpha-2 (Homo sapiens) (Q15349 whole entry): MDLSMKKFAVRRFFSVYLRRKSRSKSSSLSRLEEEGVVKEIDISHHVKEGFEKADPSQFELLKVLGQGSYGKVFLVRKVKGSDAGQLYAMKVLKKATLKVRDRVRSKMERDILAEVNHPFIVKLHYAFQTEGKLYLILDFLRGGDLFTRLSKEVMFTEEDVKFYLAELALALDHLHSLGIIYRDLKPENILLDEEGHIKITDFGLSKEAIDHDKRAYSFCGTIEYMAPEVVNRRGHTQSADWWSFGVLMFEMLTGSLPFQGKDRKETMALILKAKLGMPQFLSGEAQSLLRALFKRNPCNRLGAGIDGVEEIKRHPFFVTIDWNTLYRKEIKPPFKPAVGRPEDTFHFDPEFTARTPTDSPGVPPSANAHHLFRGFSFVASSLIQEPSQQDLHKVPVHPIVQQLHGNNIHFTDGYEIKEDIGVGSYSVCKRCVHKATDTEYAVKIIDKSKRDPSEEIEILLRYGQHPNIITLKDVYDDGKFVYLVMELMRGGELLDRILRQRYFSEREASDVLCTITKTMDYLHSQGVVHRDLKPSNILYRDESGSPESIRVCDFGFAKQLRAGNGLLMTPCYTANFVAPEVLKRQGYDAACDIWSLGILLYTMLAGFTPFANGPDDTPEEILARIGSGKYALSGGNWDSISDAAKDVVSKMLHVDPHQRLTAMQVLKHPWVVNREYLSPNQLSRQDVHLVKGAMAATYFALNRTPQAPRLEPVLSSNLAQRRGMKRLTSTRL

SMILES: CNC(=O)c1ccc(Nc2ncc(C(F)(F)F)c(NCc3nccnc3N(C)S(C)(=O)=O)n2)cc1 [DEFACTINIB]
- residual activity [1, 40]: 61%
- residual activity [2, 40]: 19%
- residual activity [3, 40]: 100%
- residual activity [4, 40]: 37%
- residual activity [5, 40]: 85%
- residual activity [6, 40]: 93%
- residual activity [7, 40]: 98%
- residual activity [8, 40]: 100%
- residual activity [9, 40]: 72%
- residual activity [10, 40]: 93%
- residual activity [11, 40]: 100%
- residual activity [12, 40]: 100%
- residual activity [13, 40]: 100%
- residual activity [14, 40]: 100%
- residual activity [15, 40]: 70%
- residual activity [16, 40]: 0%
- inhibition [17]: 4.63%
- residual activity [18, 40]: 100%
- residual activity [19, 40]: 100%
- inhibition [20]: -0.83%
- residual activity [21, 40]: 82%
- residual activity [22, 40]: 56%
- residual activity [23, 40]: 97%
- residual activity [24, 40]: 100%
- residual activity [25, 40]: 95%
- residual activity [26, 40]: 55%
- residual activity [27, 40]: 100%
- residual activity [28, 40]: 100%
- residual activity [29, 40]: 100%
- residual activity [30, 40]: 65%
- residual activity [31, 40]: 83%
- residual activity [32, 40]: 100%
- residual activity [33, 40]: 58%
- residual activity [34, 40]: 75%
- residual activity [35, 40]: 97%
- residual activity [36, 40]: 79%
- residual activity [37, 40]: 100%
- residual activity [38, 40]: 67%
- residual activity [39, 40]: 88%

SMILES: CN(c1ccnc(CNc2nc(Nc3ccc4c(c3)CC(=O)N4)ncc2C(F)(F)F)n1)S(C)(=O)=O [PF-00911705]
- residual activity [1, 41]: 95%
- residual activity [2, 41]: 11%
- residual activity [3, 41]: 89%
- residual activity [4, 41]: 54%
- residual activity [5, 41]: 76%
- residual activity [6, 41]: 88%
- residual activity [7, 41]: 0%
- residual activity [8, 41]: 68%
- residual activity [9, 41]: 83%
- residual activity [10, 41]: 36%
- residual activity [11, 41]: 70%
- residual activity [12, 41]: 50%
- residual activity [13, 41]: 100%
- residual activity [14, 41]: 100%
- residual activity [15, 41]: 11%
- residual activity [16, 41]: 0%
- inhibition [17]: 1.64%
- residual activity [18, 41]: 45%
- residual activity [19, 41]: 100%
- inhibition [20]: 16.4%
- residual activity [21, 41]: 74%
- residual activity [22, 41]: 66%
- residual activity [23, 41]: 73%
- residual activity [24, 41]: 73%
- residual activity [25, 41]: 87%
- residual activity [26, 41]: 8.5%
- residual activity [27, 41]: 91%
- residual activity [28, 41]: 72%
- residual activity [29, 41]: 88%
- residual activity [30, 41]: 7.3%
- residual activity [31, 41]: 67%
- residual activity [32, 41]: 59%
- residual activity [33, 41]: 52%
- residual activity [34, 41]: 49%
- residual activity [35, 41]: 85%
- residual activity [36, 41]: 60%
- residual activity [37, 41]: 65%
- residual activity [38, 41]: 43%
- residual activity [39, 41]: 84%
